# Measurements reported in patent US20160113282A1 (HONBU SANKEI CO., LTD., priority 2013, published 2016).
# Where two headings read alike, the source gives them in different places.
# Legend:
# [1] = system: feline calicivirus F4 strain; test: In vitro test in test tube, feline caliciviruses (Example 11); type: cell-based; settings: pH unadjusted
# [2] = system: Herpes simplex virus type I VR-539; test: Inactivation of herpesviruses, plaque assay on Vero cells; type: cell-based
# [3] = system: influenza virus Type A Aichi strain A/Aichi/68 (H3N2); type: cell-based; settings: 10 ppm; for ratio of the amount of residual infectious viruses: 30 minutes at 25° C., PBS = 1.00
# feline caliciviruses = test: Sterilizing solution wrung from wet wipe, feline caliciviruses (Example 11)
compound,measurement,setting,value
"OCl [Sodium hypochlorite aqueous solution, sodium hypochlorite]",number of infectious viruses,"[1]; 100 ppm, contact 10 min",<2.0 log CPU/mL
same,number of infectious viruses,"[1]; 200 ppm, contact 0 min",6.4 ± 2.7 log CPU/mL
same,number of infectious viruses,"[1]; 200 ppm, contact 1 min",<2.0 log CPU/mL
same,number of infectious viruses,"[1]; 200 ppm, contact 5 min",<2.0 log CPU/mL
same,number of infectious viruses,"[1]; 200 ppm, contact 10 min",<2.0 log CPU/mL
same,number of infectious viruses,"[1]; 400 ppm, contact 0 min",6.4 ± 2.7 log CPU/mL
same,number of infectious viruses,"[1]; 400 ppm, contact 1 min",<2.0 log CPU/mL
same,number of infectious viruses,"[1]; 400 ppm, contact 5 min",<2.0 log CPU/mL
same,number of infectious viruses,"[1]; 400 ppm, contact 10 min",<2.0 log CPU/mL
same,sterilizing effect on herpesvirus type I,[2]; acidic conditions of pH 5.5 or lower,diminished
same,Number of Residual Viruses in Test Solution/Number of Residual Viruses only with Buffer × 100 (%),"[2]; pH 4.5, 10 ppm",80%
same,Number of Residual Viruses in Test Solution/Number of Residual Viruses only with Buffer × 100 (%),"[2]; pH 4.5, 50 ppm",67.4%
same,Number of Residual Viruses in Test Solution/Number of Residual Viruses only with Buffer × 100 (%),"[2]; pH 4.5, 100 ppm",63.1%
same,Number of Residual Viruses in Test Solution/Number of Residual Viruses only with Buffer × 100 (%),"[2]; pH 4.5, 150 ppm",23.3%
same,Number of Residual Viruses in Test Solution/Number of Residual Viruses only with Buffer × 100 (%),"[2]; pH 4.5, 200 ppm",35.2%
same,Number of Residual Viruses in Test Solution/Number of Residual Viruses only with Buffer × 100 (%),"[2]; pH 5.5, 10 ppm",14.3%
same,Number of Residual Viruses in Test Solution/Number of Residual Viruses only with Buffer × 100 (%),"[2]; pH 5.5, 50 ppm",90.9%
same,Number of Residual Viruses in Test Solution/Number of Residual Viruses only with Buffer × 100 (%),"[2]; pH 5.5, 100 ppm",96.4%
same,Number of Residual Viruses in Test Solution/Number of Residual Viruses only with Buffer × 100 (%),"[2]; pH 5.5, 150 ppm",<0.2%
same,Number of Residual Viruses in Test Solution/Number of Residual Viruses only with Buffer × 100 (%),"[2]; pH 5.5, 150 ppm, listed as sodium hypochlorite aqueous solution",below the detectable limit
same,Number of Residual Viruses in Test Solution/Number of Residual Viruses only with Buffer × 100 (%),"[2]; pH 5.5, 200 ppm",<0.5%
same,Number of Residual Viruses in Test Solution/Number of Residual Viruses only with Buffer × 100 (%),"[2]; pH 5.5, 200 ppm, listed as sodium hypochlorite aqueous solution",below the detectable limit
same,Number of Residual Viruses in Test Solution/Number of Residual Viruses only with Buffer × 100 (%),"[2]; pH 6.5, 10 ppm",<6%
same,Number of Residual Viruses in Test Solution/Number of Residual Viruses only with Buffer × 100 (%),"[2]; pH 6.5, 50 ppm",<0.3%
same,Number of Residual Viruses in Test Solution/Number of Residual Viruses only with Buffer × 100 (%),"[2]; pH 6.5, 100 ppm",<0.3%
same,Number of Residual Viruses in Test Solution/Number of Residual Viruses only with Buffer × 100 (%),"[2]; pH 6.5, 150 ppm",<0.2%
same,Number of Residual Viruses in Test Solution/Number of Residual Viruses only with Buffer × 100 (%),"[2]; pH 6.5, 200 ppm",<0.6%
same,Number of Residual Viruses in Test Solution/Number of Residual Viruses only with Buffer × 100 (%),"[2]; pH 7.5, 10 ppm",20%
same,Number of Residual Viruses in Test Solution/Number of Residual Viruses only with Buffer × 100 (%),"[2]; pH 7.5, 50 ppm",<0.3%
same,Number of Residual Viruses in Test Solution/Number of Residual Viruses only with Buffer × 100 (%),"[2]; pH 7.5, 100 ppm",<0.3%
same,Number of Residual Viruses in Test Solution/Number of Residual Viruses only with Buffer × 100 (%),"[2]; pH 7.5, 150 ppm",<0.2%
same,Number of Residual Viruses in Test Solution/Number of Residual Viruses only with Buffer × 100 (%),"[2]; pH 7.5, 200 ppm",<0.4%
same,Number of Residual Viruses in Test Solution/Number of Residual Viruses only with Buffer × 100 (%),"[2]; pH 8.5, 10 ppm",36%
same,Number of Residual Viruses in Test Solution/Number of Residual Viruses only with Buffer × 100 (%),"[2]; pH 8.5, 50 ppm",<0.3%
same,Number of Residual Viruses in Test Solution/Number of Residual Viruses only with Buffer × 100 (%),"[2]; pH 8.5, 100 ppm",<0.3%
same,Number of Residual Viruses in Test Solution/Number of Residual Viruses only with Buffer × 100 (%),"[2]; pH 8.5, 150 ppm",<0.2%
same,Number of Residual Viruses in Test Solution/Number of Residual Viruses only with Buffer × 100 (%),"[2]; pH 8.5, 200 ppm",<0.4%
same,concentration reducing HSV-I to below the detectable limit,[2]; pH conditions of 6.5-8.5,≥ 50 ppm
same,viruses inactivated to (detectable limit),[3]; each pH from pH 5.5 to pH 8.8,< 10^−5
same,ratio of the amount of residual infectious viruses,[3]; pH 5.5,<0.0002
same,ratio of the amount of residual infectious viruses,[3]; pH 6.5,<0.0002
same,ratio of the amount of residual infectious viruses,[3]; pH 7.5,<0.0002
same,ratio of the amount of residual infectious viruses,[3]; pH 8.5,<0.0002
same,number of infectious viruses,"feline caliciviruses; solution from wet wipe, 500 ppm (formulation 60 times), contact 1 min",3.5 ± 2.1 CPU/mL
same,number of infectious viruses,"feline caliciviruses; solution from wet wipe, 500 ppm (formulation 60 times), contact 5 min",2.9 ± 2.7 CPU/mL
same,number of infectious viruses,"feline caliciviruses; solution from wet wipe, 500 ppm (formulation 60 times), contact 10 min",<100 CPU/mL
same,number of infectious viruses,"feline caliciviruses; solution from wet wipe, 750 ppm (formulation 40 times), contact 1 min",<100 CPU/mL
same,number of infectious viruses,"feline caliciviruses; solution from wet wipe, 750 ppm (formulation 40 times), contact 5 min",<100 CPU/mL
same,number of infectious viruses,"feline caliciviruses; solution from wet wipe, 750 ppm (formulation 40 times), contact 10 min",<100 CPU/mL
same,number of infectious viruses,"feline caliciviruses; solution from wet wipe, 1000 ppm (formulation 30 times), contact 1 min",<100 CPU/mL
same,number of infectious viruses,"feline caliciviruses; solution from wet wipe, 1000 ppm (formulation 30 times), contact 5 min",<100 CPU/mL
same,number of infectious viruses,"feline caliciviruses; solution from wet wipe, 1000 ppm (formulation 30 times), contact 10 min",<100 CPU/mL
same,number of infectious viruses,"feline caliciviruses; solution from wet wipe, 3000 ppm (formulation 10 times), contact 1 min",<100 CPU/mL
same,number of infectious viruses,"feline caliciviruses; solution from wet wipe, 3000 ppm (formulation 10 times), contact 5 min",<100 CPU/mL
same,number of infectious viruses,"feline caliciviruses; solution from wet wipe, 3000 ppm (formulation 10 times), contact 10 min",<100 CPU/mL
same,number of infectious viruses,"feline caliciviruses; wet wipe stored Day 0, 1000 ppm, contact 1 min",<100
same,number of infectious viruses,"feline caliciviruses; wet wipe stored Day 0, 1000 ppm, contact 5 min",<100
same,number of infectious viruses,"feline caliciviruses; wet wipe stored Day 0, 1000 ppm, contact 10 min",<100
same,number of infectious viruses,"feline caliciviruses; wet wipe stored Day 0, 3000 ppm, contact 1 min",<100
same,number of infectious viruses,"feline caliciviruses; wet wipe stored Day 0, 3000 ppm, contact 5 min",<100
same,number of infectious viruses,"feline caliciviruses; wet wipe stored Day 0, 3000 ppm, contact 10 min",<100
same,number of infectious viruses,"feline caliciviruses; wet wipe stored Day 3, 1000 ppm, contact 1 min",Many
same,number of infectious viruses,"feline caliciviruses; wet wipe stored Day 3, 1000 ppm, contact 5 min",Many
same,number of infectious viruses,"feline caliciviruses; wet wipe stored Day 3, 1000 ppm, contact 10 min",Many
same,number of infectious viruses,"feline caliciviruses; wet wipe stored Day 3, 3000 ppm, contact 1 min",Many
same,number of infectious viruses,"feline caliciviruses; wet wipe stored Day 3, 3000 ppm, contact 5 min",Many
same,number of infectious viruses,"feline caliciviruses; wet wipe stored Day 3, 3000 ppm, contact 10 min",Many
